Measured values as given in the supplement of paper PMC8882468.

What was measured:
Test in all cases: CTG-3D luminescence at 96 h relative to day-0 seeding control (ratio to day 0); higher = more growth / less cytotoxicity; PDxO 3D drug screen (set 2), 96 h, CTG-3D normalised to day-0 seeding control.
HCI-019 = test system: HCI-019 (organoid from a triple-negative breast cancer xenograft)
HCI-012 = test system: HCI-012 (organoid from a breast cancer xenograft)
HCI-008 = test system: HCI-008 (organoid from a HER2-enriched breast cancer xenograft)

CC(C)n1nc(-c2ccc3oc(N)nc3c2)c2c(N)ncnc21 [sapanisertib]
CTG-3D luminescence at 96 h
Conditions | 12.5 pM | 0.00025 µM | 0.005 µM | 0.1 µM | 1 µM | 10 µM | 100 µM | 625 fM
HCI-008, days in culture: 325 | 1.51 | 1.96 | 1.64 | 0.99 | 0.826 | 0.32 | 0.112 | 1.88
HCI-008, days in culture: 340 | 0.668 | 2.32 | 1.51 | 0.592 | 0.593 | – | 0.0751 | 0.965
HCI-008, days in culture: 354 | 1.18 | 1.2 | 2.84 | 0.615 | 0.502 | 0.229 | 0.122 | 1.31
HCI-008, days in culture: 382 | 1.81 | 1.93 | 1.22 | 0.751 | 0.282 | 0.304 | 0.0604 | 1.7
HCI-012, days in culture: 214 | 3 | 1.84 | 1.05 | 1.27 | 0.635 | 0.331 | 0.0967 | 2.11
HCI-012, days in culture: 243 | 1.95 | 2.36 | 1.77 | 1.16 | 0.476 | 0.522 | 0.156 | 3.05
HCI-012, days in culture: 256 | 2.05 | 2.28 | 2.44 | 1.31 | 0.395 | 0.305 | 0.171 | 2.12
HCI-012, days in culture: 284 | 1.65 | 2.83 | 1.59 | 1.13 | 0.451 | 0.248 | 0.147 | 3.7
HCI-019, days in culture: 173 | – | – | – | – | – | – | 0.0514 | 1.71
HCI-019, days in culture: 194 | – | – | – | – | – | 0.49 | 0.0673 | 3.01
HCI-019, days in culture: 215 | – | – | – | – | – | 0.192 | 0.0431 | 1.84
